Data published in US20240109868A1, “EP300/CBP MODULATOR, PREPARATION METHOD THEREFOR AND USE THEREOF” (Miracure Biotechnology Limited, priority 2022, published 2024).

Assays:
vCap Cell = experiment: vCap cell growth inhibition, CellTiter-Glo, 72 h; assay type: cell-based; settings: vCap cells, 72 h culture
Experimental: (§1) 22RV1 or vCap cells were cultured in RPMI-1640 medium (10% fetal bovine serum and 100 units (per mL) of penicillin/streptomycin dual antibody were added to RPMI-1640) in a 37° C., 5% CO2 cell incubator. Cells at the logarithmic growth phase were inoculated onto a 96-well cell culture plate at 5×10^3 cells/100 μL/well and cultured overnight. Solutions of different concentrations of an active compound in DMSO were added, with the final concentration being 0.5% DMSO. The positive control was 1% TweeN2O, and the negative control was 0.5% DMSO. After 72 h of culture, an equal volume of CellTiter-Glo was added to each well, and the mixtures were mixed homogeneously by shaking for 2 min. The plate was let stand at room temperature for 10 min, and fluorescence signal values were read using a microplate reader. Data were analyzed using Prism 7.0 and graphs were generated. The values are shown as mean f SEM (N=2). […] The X-axis represents compound concentration (μM), and the Y-axis represents % inhibition.

22Rv1 Cell = experiment: 22RV1 cell growth inhibition, CellTiter-Glo, 72 h; assay type: cell-based; settings: 22RV1 cells, 72 h culture
Experimental: as §1

Row | Structure (SMILES) | IC50 (vCap Cell; Homo sapiens, VCaP, 72 h) [µM] | IC50 (22Rv1 Cell; Homo sapiens, 22Rv1, 72 h) [µM] | IC50 (vCap Cell) [µM] | IC50 (22Rv1 Cell) [µM]
1 | CNC(=O)N1CCc2cc(C3CCN(C(=O)C4CC4)CC3)cc(N3CCCc4cc(-c5cnn(C)c5)c(C(F)F)cc43)c2C1 [Compound M001069] | > 1 | < 1 |  | 
2 | CC(=O)N1Cc2cc([C@H]3CC[C@@H](N)CC3)cc(N3CCCc4cc(-c5cnn(C)c5)c(C(F)F)cc43)c2C1 [Compound M001321] | > 1 | > 1 |  | 
3 | CSC1CCC(c2cc3c(c(N4CCCc5cc(-c6cnn(C)c6)c(C(F)F)cc54)c2)CN(C(C)=O)C3)CC1 (centres unmarked) [Compound M001324] |  |  | < 1 | > 1
4 | COC(=O)N1CCc2cc(Cl)cc(N3CCCc4cc(-c5cnn(C)c5)c(C(F)F)cc43)c2C1 [Compound M001201] | > 1 | > 1 |  | 
5 | CC(=O)N1Cc2cc(C3CCC(O)CC3)cc(N3CCCc4cc(-c5cnn(C)c5)c(C(F)F)cc43)c2C1 (centres unmarked) [Compound M001064] | < 1 | > 1 |  | 
6 | CC(=O)N1Cc2cc(C3CCN(S(=O)(=O)C4CC4)CC3)cc(N3CCCc4cc(-c5cnn(C)c5)c(C(F)F)cc43)c2C1 [Compound M001298] | < 1 | < 1 |  | 
7 | CC(=O)N1CCCc2cccc(N3CCCc4cc(-c5cnn(C)c5)c(C(F)F)cc43)c2C1 [Compound M001212] | > 1 | > 1 |  | 
8 | CNC(=O)N1Cc2cc([C@H]3CC[C@@H](O)CC3)cc(N3CCCc4cc(-c5cnn(C)c5)c(C(F)F)cc43)c2C1 [Compound M001192] | > 1 | > 1 |  | 
9 | CNC(=O)N1CCc2cc(N3CCN(C)CC3)cc(N3CCCc4cc(-c5cnn(C)c5)c(C(F)F)cc43)c2C1 [Compound M001045] | > 1 | > 1 |  | 
10 | CNC(=O)N1CCc2cc(N3CCNCC3)cc(N3CCCc4cc(-c5cnn(C)c5)c(C(F)F)cc43)c2C1 [Compound M001044] | > 1 | > 1 |  | 
11 | CNC(=O)N1CCc2cc(C3CCN(C(=O)C4CCNC4)CC3)cc(N3CCCc4cc(-c5cnn(C)c5)c(C(F)F)cc43)c2C1 (centres unmarked) [Compound M001075] | > 1 | > 1 |  | 
12 | CC(=O)N1Cc2cc(C3CC4CCC(C3)N4C)cc(N3CCCc4cc(-c5cnn(C)c5)c(C(F)F)cc43)c2C1 (centres unmarked) [Compound M001032] | > 1 | > 1 |  | 
13 | CC(=O)N1Cc2cc(C3CNC(=O)OC3)cc(N3CCCc4cc(-c5cnn(C)c5)c(C(F)F)cc43)c2C1 (centres unmarked) [Compound M001246] | > 1 | > 1 |  | 
14 | CON[C@H]1CC[C@@H](c2cc3c(c(N4CCCc5cc(-c6cnn(C)c6)c(C(F)F)cc54)c2)CN(C(C)=O)C3)CC1 [Compound M001340] | > 1 | > 1 |  | 
15 | CS[C@H]1CC[C@@H](c2cc3c(c(N4CCCc5cc(-c6cnn(C)c6)c(C(F)F)cc54)c2)CN(C(C)=O)C3)CC1 [Compound M001322] | > 1 | > 1 |  | 
16 | CNC(=O)N1CCc2cc(C3=CC4CCC(C3)N4)cc(N3CCCc4cc(-c5cnn(C)c5)c(C(F)F)cc43)c2C1 (centres unmarked) [Compound M001088] | > 1 | > 1 |  | 
17 | CC(=O)N[C@H]1CC[C@H](c2cc3c(c(N4CCCc5cc(-c6cnn(C)c6)c(C(F)F)cc54)c2)CN(C(C)=O)C3)CC1 [Compound M001304] | < 1 | < 1 |  | 
18 | CNC(=O)N1CCc2cc(CN3CCC(C(=O)O)CC3)cc(N3CCCc4cc(-c5cnn(C)c5)c(C(F)F)cc43)c2C1 [Compound M001016] | > 1 | > 1 |  | 
19 | CC(=O)N1Cc2cc(C3CCN(C(=O)C4CCN(C)C4)CC3)cc(N3CCCc4cc(-c5cnn(C)c5)c(C(F)F)cc43)c2C1 (centres unmarked) [Compound M001087] | > 1 | > 1 |  | 
20 | CNC(=O)N1CCCc2cccc(N3CCCc4cc(-c5cnn(C)c5)c(C(F)F)cc43)c2C1 [Compound M001211] | > 1 | > 1 |  | 
21 | CNC(=O)N1Cc2cc(C3CC4CCC(C3)N4C(C)=O)cc(N3CCCc4cc(-c5cnn(C)c5)c(C(F)F)cc43)c2C1 (centres unmarked) [Compound M001095] | > 1 | > 1 |  | 
22 | CC(=O)N1Cc2cc(C3CCN(C(=O)c4cn(C)cn4)CC3)cc(N3CCCc4cc(-c5cnn(C)c5)c(C(F)F)cc43)c2C1 [Compound M001176] | < 1 | < 1 |  | 
23 | CC(=O)N1CCc2cc(-c3ccn(C)c(=O)c3)cc(N3CCCc4cc(-c5cnn(C)c5)c(C(F)F)cc43)c2C1 [Compound M001144] | > 1 | > 1 |  | 
24 | CC(=O)N1CCc2cc(-c3cc[nH]c(=O)c3)cc(N3CCCc4cc(-c5cnn(C)c5)c(C(F)F)cc43)c2C1 [Compound M001153] | > 1 | > 1 |  | 
25 | CCNC(=O)N1CCc2cc(Cl)cc(N3CCCc4cc(-c5cnn(C)c5)c(C(F)F)cc43)c2C1 [Compound M001229] | > 1 | > 1 |  | 
26 | CNC(=O)N1Cc2cc(C3CC4CCC(C3)N4C(=O)OC)cc(N3CCCc4cc(-c5cnn(C)c5)c(C(F)F)cc43)c2C1 (centres unmarked) [Compound M001137] | > 1 | > 1 |  | 
27 | CNC(=O)N1Cc2nc(C3CCOCC3)nc(N3CCCc4cc(-c5cnn(C)c5)c(C(F)F)cc43)c2C1 [Compound M001244] | > 1 | > 1 |  | 
28 | CSC1CCC(c2cc3c(c(N4CCCc5cc(-c6cnn(C)c6)c(C(F)F)cc54)c2)CN(C(C)=O)C3)CC1 (centres unmarked) [Compound M001315] | < 1 | > 1 |  | 
29 | CC(=O)N1Cc2cc(N3CCN(C)CC3)cc(N3CCCc4cc(-c5cnn(C)c5)c(C(F)F)cc43)c2C1 [Compound M001003] | > 1 | > 1 |  | 
30 | CNC(=O)N1CCc2cc(C3CCN(C(=O)C4CNC4)CC3)cc(N3CCCc4cc(-c5cnn(C)c5)c(C(F)F)cc43)c2C1 [Compound M001083] | > 1 | > 1 |  | 

Second part, the compound after the results:

Row | IC50 (vCap Cell; Homo sapiens, VCaP, 72 h) [µM] | IC50 (22Rv1 Cell; Homo sapiens, 22Rv1, 72 h) [µM] | IC50 (vCap Cell) [µM] | IC50 (22Rv1 Cell) [µM] | Structure (SMILES)
31 | > 1 | > 1 |  |  | CC(=O)N1Cc2cc(C3CCCNC3)cc(N3CCCc4cc(-c5cnn(C)c5)c(C(F)F)cc43)c2C1 (centres unmarked) [Compound M001048]
32 | > 1 | > 1 |  |  | CNC(=O)N1Cc2cc(C3CCNC(=O)C3)cc(N3CCCc4cc(-c5cnn(C)c5)c(C(F)F)cc43)c2C1 (centres unmarked) [Compound M001118]
33 | > 1 | > 1 |  |  | CN1CCC(c2cc3c(c(N4CCCc5cc(-c6cnn(C)c6)c(C(F)F)cc54)c2)CN(C(=O)C2CC2)C3)CC1=O (centres unmarked) [Compound M001164]
34 | > 1 | > 1 |  |  | CC(=O)N1Cc2cc(C3CCN(C4CCC(=O)NC4=O)C(=O)C3)cc(N3CCCc4cc(-c5cnn(C)c5)c(C(F)F)cc43)c2C1 (centres unmarked) [Compound M001288]
35 | > 1 | > 1 |  |  | CC(=O)N1CCC(c2cc3c(c(N4CCCc5cc(-c6cnn(C)c6)c(C(F)F)cc54)c2)CN(C(C)=O)C3)CC1 [Compound M001071]
36 | > 1 | > 1 |  |  | CCN1CCC(c2cc3c(c(N4CCCc5cc(-c6cnn(C)c6)c(C(F)F)cc54)c2)CN(C(N)=O)CCC3)CC1=O (centres unmarked) [Compound M001261]
37 | < 1 | < 1 |  |  | CNC(=O)N1CCc2cc(C3CCC(=O)N(CCOC)C3)cc(N3CCCc4cc(-c5cnn(C)c5)c(C(F)F)cc43)c2C1 (centres unmarked) [Compound M001222]
38 | < 1 | < 1 |  |  | CNC(=O)N1CCc2cc(C3CCC(=O)N(CC(C)(C)O)C3)cc(N3CCCc4cc(-c5cnn(C)c5)c(C(F)F)cc43)c2C1 (centres unmarked) [Compound M001230]
39 |  |  | > 1 | > 1 | CC(=O)N1Cc2cc(C3CCC(N)CC3)cc(N3CCCc4cc(-c5cnn(C)c5)c(C(F)F)cc43)c2C1 (centres unmarked) [Compound M001320]
40 | > 1 | > 1 |  |  | CC(=O)N1Cc2cc(C3CCC(N)CC3)cc(N3CCCc4cc(-c5cnn(C)c5)c(C(F)F)cc43)c2C1 (centres unmarked) [Compound M001301, 1-(6-(4-aminocyclohexyl)-4-(7-(difluoromethyl)-6-(1-methyl-1H-pyrazol-4-yl)-3,4-dihydroquinolin-1(2H)-yl)isoindolin-2-yl)ethan-1-one]
41 | > 1 | > 1 |  |  | CNC(=O)N1Cc2cc(C3CCN(C)CC3)cc(N3CCCc4cc(-c5cnn(C)c5)c(C(F)F)cc43)c2C1 [Compound M001043]
42 | < 1 | < 1 |  |  | CNC(=O)N1CCc2cc([C@H]3CCC(=O)N(C)C3)cc(N3CCCc4cc(-c5cnn(C)c5)c(C(F)F)cc43)c2C1 [Compound M001234]
43 | > 1 | > 1 |  |  | CNC(=O)N1CCc2cc(C3CCNCC3)cc(N3CCCc4cc(-c5cnn(C)c5)c(C(F)F)cc43)c2C1 [Compound M001017]
44 | > 1 | > 1 |  |  | CC(=O)N1CCc2cc([C@H]3CC[C@@H](O)CC3)cc(N3CCCc4cc(-c5cnn(C)c5)c(C(F)F)cc43)c2C1 [Compound M001178]
45 | > 1 | > 1 |  |  | CNC(=O)N1CCc2cc(C3CCC(=O)CC3)cc(N3CCCc4cc(-c5cnn(C)c5)c(C(F)F)cc43)c2C1 [Compound M001103]
46 | > 1 | > 1 |  |  | CC(=O)N1Cc2cc(C3CCN(CC(F)(F)F)CC3)cc(N3CCCc4cc(-c5cnn(C)c5)c(C(F)F)cc43)c2C1 [Compound M001057]
47 | < 1 | > 1 |  |  | CNC(=O)N1CCc2cc(C3CCN(OC)CC3)cc(N3CCCc4cc(-c5cnn(C)c5)c(C(F)F)cc43)c2C1 [Compound M001268]
48 |  |  | < 1 | < 1 | CC(=O)N1Cc2cc(C3CCN(CC(C)O)C(=O)C3)cc(N3CCCc4cc(-c5cnn(C)c5)c(C(F)F)cc43)c2C1 (centres unmarked) [Compound M001249]
49 | < 1 | > 1 |  |  | COCCN1CC(c2cc3c(c(N4CCCc5cc(-c6cnn(C)c6)c(C(F)F)cc54)c2)CN(C(C)=O)C3)CCC1=O (centres unmarked) [Compound M001225]
